Experimental findings from US20260028326A1, “COMPOUND BASED ON ISOINDOLINE-SUBSTITUTED GLUTARIMIDE BACKBONE AND USE THEREOF” (GLUETACS THERAPEUTICS (SHANGHAI) CO., LTD., priority 2022, published 2026) are described below.

The target in test [1] is human Cereblon WT GST-tagged protein (Homo sapiens (Human), UniProt Q96SW2). Briefly: CRBN-binding affinity, HTRF (CEREBLON BINDING kit). The essentials:
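HTRF competition readout: compounds compete with a thalidomide-Re conjugate for GST-tagged wild-type human CRBN detected via Eu-labelled anti-GST antibody. Inhibition rate derived relative to protein-free blank wells.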
Background: TR-FRET usually uses a lanthanide donor and a delayed reading to cut background.

Another test relates to Mino cells. Kind of test: Tumor cell proliferation IC50 (CCK-8), Mino.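 Further: cell viability assessed with CCK-8 reagent after compound exposure, IC50 derived from plotted growth inhibition curves.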 The conditions noted are these: Homo sapiens, 72 h, read-out: IC50 for inhibiting the proliferation of tumor cells, Mino.
The subject of a further test is MM.1S cells. Briefly: Tumor cell proliferation IC50 (CCK-8), MM.1S.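 Further: viability of cultured cells read by CCK-8 reagent after compound exposure, growth inhibition curves fitted to derive IC50.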 The note with it: Homo sapiens, MM1.S, 72 h, read-out: IC50 for inhibiting the proliferation of tumor cells, MM.1S.
Another test deals with IKZF3 protein (Homo sapiens (Human), UniProt Q96SW2+Q9UKT9). Briefly: Western-blot assay of substrate protein degradation in hPBMC, IKZF3. Type of test: cell-based. The conditions noted are these: hPBMC cells, compound 500 nM, 24 hours, Western blot.
In the next test the target is GSPT1 protein (Homo sapiens (Human), UniProt P15170+Q96SW2). Briefly: Western-blot assay of substrate protein degradation in hPBMC, GSPT1. Type of test: cell-based. The note with it: hPBMC cells, compound 500 nM, 24 hours, Western blot. A general note: A western blot detects proteins with antibodies after separation by electrophoresis.
Another test concerns the target IKZF1 protein (Homo sapiens (Human), UniProt Q13422+Q96SW2). Briefly: Western-blot assay of substrate protein degradation in hPBMC, IKZF1. Type of test: cell-based. The note with it: hPBMC cells, compound 500 nM, 24 hours, Western blot.

Each structure is given as a SMILES string.

IKZF3 protein, sequence (Q9UKT9 whole entry): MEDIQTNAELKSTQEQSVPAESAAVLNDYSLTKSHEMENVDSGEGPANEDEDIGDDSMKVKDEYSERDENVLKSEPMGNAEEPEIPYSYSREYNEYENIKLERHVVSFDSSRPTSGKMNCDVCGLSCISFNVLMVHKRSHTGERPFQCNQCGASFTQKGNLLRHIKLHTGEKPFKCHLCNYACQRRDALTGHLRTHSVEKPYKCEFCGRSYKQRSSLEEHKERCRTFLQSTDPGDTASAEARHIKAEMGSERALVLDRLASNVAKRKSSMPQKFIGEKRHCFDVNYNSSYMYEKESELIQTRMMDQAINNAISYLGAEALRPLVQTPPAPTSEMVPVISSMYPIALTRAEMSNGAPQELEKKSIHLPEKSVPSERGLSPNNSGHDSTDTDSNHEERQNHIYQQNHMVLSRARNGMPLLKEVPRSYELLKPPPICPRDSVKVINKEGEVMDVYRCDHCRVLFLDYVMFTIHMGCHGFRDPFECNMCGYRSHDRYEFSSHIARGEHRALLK
IKZF3 protein, sequence (Q96SW2 whole entry): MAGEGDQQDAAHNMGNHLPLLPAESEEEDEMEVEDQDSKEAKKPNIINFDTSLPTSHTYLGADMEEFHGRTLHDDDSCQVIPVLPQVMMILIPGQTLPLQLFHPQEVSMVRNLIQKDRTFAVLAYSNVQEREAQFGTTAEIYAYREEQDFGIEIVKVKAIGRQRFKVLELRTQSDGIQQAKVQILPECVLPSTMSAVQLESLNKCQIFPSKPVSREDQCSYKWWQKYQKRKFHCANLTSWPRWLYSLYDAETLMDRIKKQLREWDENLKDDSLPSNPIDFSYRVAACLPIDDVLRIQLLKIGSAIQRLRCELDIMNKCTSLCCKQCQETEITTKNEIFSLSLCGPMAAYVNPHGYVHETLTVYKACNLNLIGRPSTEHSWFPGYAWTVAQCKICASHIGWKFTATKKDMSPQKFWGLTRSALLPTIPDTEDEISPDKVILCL
IKZF3 protein, sequence (Q16531 whole entry partner): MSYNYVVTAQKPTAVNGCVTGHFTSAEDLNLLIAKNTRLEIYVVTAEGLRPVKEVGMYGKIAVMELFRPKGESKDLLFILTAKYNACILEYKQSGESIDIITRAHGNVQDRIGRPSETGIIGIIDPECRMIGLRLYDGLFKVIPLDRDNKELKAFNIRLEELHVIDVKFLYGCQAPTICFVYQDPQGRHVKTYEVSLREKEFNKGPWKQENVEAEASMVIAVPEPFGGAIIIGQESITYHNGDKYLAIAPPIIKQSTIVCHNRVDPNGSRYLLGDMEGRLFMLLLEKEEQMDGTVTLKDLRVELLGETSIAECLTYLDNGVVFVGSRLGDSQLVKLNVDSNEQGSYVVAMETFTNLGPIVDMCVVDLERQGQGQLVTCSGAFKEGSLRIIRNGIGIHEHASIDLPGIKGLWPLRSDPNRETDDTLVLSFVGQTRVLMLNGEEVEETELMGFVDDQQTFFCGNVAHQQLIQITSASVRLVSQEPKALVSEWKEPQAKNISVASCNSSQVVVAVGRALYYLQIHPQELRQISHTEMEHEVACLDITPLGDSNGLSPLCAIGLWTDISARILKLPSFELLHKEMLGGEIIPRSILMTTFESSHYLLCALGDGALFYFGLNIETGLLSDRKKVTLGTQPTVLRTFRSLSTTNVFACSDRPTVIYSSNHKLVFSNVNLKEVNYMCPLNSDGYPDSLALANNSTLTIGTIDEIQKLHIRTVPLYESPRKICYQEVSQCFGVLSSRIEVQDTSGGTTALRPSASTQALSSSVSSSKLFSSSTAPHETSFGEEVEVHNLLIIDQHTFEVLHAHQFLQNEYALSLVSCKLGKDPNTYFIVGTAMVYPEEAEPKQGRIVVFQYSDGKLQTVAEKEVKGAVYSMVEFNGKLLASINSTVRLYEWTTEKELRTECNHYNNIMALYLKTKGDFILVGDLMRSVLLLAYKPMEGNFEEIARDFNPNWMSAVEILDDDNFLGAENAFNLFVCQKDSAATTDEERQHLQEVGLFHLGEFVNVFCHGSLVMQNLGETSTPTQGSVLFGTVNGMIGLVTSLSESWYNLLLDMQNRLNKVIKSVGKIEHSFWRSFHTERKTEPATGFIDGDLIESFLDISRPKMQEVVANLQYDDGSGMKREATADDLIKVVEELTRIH
IKZF1 protein, sequence (Q13422 whole entry): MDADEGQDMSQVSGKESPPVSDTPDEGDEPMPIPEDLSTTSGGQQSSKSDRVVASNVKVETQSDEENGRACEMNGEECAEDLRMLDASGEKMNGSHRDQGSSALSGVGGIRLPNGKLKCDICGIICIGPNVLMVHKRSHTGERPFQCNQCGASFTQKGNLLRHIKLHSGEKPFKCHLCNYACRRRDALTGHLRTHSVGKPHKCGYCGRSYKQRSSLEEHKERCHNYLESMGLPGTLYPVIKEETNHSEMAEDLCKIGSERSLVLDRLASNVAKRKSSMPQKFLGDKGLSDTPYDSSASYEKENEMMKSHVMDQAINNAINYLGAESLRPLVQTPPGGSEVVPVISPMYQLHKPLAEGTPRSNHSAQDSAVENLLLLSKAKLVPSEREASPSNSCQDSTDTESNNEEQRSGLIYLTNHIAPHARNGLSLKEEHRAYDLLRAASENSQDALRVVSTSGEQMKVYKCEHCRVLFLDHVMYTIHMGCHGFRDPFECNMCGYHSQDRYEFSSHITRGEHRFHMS
IKZF1 protein, sequence (Q96SW2 whole entry): as the sequence (Q96SW2 whole entry) above
IKZF1 protein, sequence (Q16531 whole entry partner): as the sequence (Q16531 whole entry partner) above
GSPT1 protein, sequence (P15170 whole entry): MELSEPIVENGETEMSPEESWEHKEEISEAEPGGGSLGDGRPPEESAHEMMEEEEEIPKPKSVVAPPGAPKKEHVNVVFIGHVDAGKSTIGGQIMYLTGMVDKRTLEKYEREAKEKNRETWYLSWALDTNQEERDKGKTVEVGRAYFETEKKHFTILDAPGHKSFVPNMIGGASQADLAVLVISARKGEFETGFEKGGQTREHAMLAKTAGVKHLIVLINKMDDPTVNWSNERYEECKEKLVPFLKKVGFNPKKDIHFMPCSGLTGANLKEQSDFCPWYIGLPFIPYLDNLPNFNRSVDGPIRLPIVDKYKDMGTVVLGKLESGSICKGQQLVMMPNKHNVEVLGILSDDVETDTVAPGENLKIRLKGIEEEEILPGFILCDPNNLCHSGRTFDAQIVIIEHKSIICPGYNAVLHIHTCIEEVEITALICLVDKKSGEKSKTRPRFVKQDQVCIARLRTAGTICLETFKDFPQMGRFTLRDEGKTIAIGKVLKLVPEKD
GSPT1 protein, sequence (Q96SW2 whole entry): as the sequence (Q96SW2 whole entry) above
GSPT1 protein, sequence (Q16531 whole entry partner): as the sequence (Q16531 whole entry partner) above
human Cereblon WT GST-tagged protein, sequence (Q96SW2 whole entry): as the sequence (Q96SW2 whole entry) above

`O=C1CCC(N2Cc3cc(CN4CCN(C(=O)c5ccccc5-c5ccc(Cl)cc5)CC4)ccc3C2=O)C(=O)N1` (centres unmarked) [GT-03891, 3-(5-((4-(4′-chloro-[1,1′-biphenyl]-2-carbonyl)piperazin-1-yl)methyl)-1-oxoisoindolin-2-yl)piperidine-2,6-dione]: the results for the IC50 (in test [1]; in the test on Mino cells; in the test with MM.1S cells) were 230 nM, 100 to 500 nM and 100 to 500 nM, respectively.

Turning to `O=C1CCC(N2C(=O)c3ccc(N4C5CCC4CN(Cc4ccccc4-c4ccc(Cl)cc4)C5)cc3C2=O)C(=O)N1` (centres unmarked) [GT-05370, 5-(3-((4′-chloro-[1,1′-biphenyl]-2-yl)methyl)-3,8-diazabicyclo[3.2.1]octan-8-yl)-2-(2,6-dioxopiperidin-3-yl)isoindoline-1,3-dione], the “residual substrate protein level, IKZF3” value on IKZF3 protein is recorded as “A (A represents a residual substrate protein level of <50%)”. Besides, the “residual substrate protein level, GSPT1” value at GSPT1 protein is “A (A represents a residual substrate protein level of <50%)”. Also, the IC50 in the test on MM.1S cells is less than 5 nM. The “residual substrate protein level, IKZF1” value at IKZF1 protein is reported as “B (B represents a residual substrate protein level of >50%)”.

In the case of `CC1(C)CCC(CN2CC3CC(C2)N3Cc2cc(F)c3c(c2)CN(C2CCC(=O)NC2=O)C3=O)=C(c2ccc(Cl)cc2)C1` (centres unmarked) [GT-05383, 3-(5-((3-((4′-chloro-5,5-dimethyl-3,4,5,6-tetrahydro-[1,1′-biphenyl]-2-yl)methyl)-3,6-diazabicyclo[3.1.1]heptan-6-yl)methyl)-7-fluoro-1-oxoisoindolin-2-yl)piperidine-2,6-dione], the “residual substrate protein level, IKZF3” value at IKZF3 protein is given as “B (B represents a residual substrate protein level of >50%)”. Further, the IC50 in test [1] was 540 nM; with MM.1S cells, 500 to 1000 nM. The “residual substrate protein level, GSPT1” value at GSPT1 protein is given as “A (A represents a residual substrate protein level of <50%)”. Besides, the “residual substrate protein level, IKZF1” value at IKZF1 protein is recorded as “B (B represents a residual substrate protein level of >50%)”.

In the case of `CC1(C)CCC(CN2CCCN(Cc3ccc4c(c3)CN(C3CCC(=O)NC3=O)C4=O)CC2)=C(c2ccc(Cl)cc2)C1` (centres unmarked) [GT-05396, 3-(5-((4-((4′-chloro-5,5-dimethyl-3,4,5,6-tetrahydro-[1,1′-biphenyl]-2-yl)methyl)-1,4-diazepan-1-yl)methyl)-1-oxoisoindolin-2-yl)piperidine-2,6-dione], the “residual substrate protein level, IKZF3” value on IKZF3 protein was “A (A represents a residual substrate protein level of <50%)”. For the same compound, the IC50 in test [1] was 590 nM; in the test with MM.1S cells, 100 to 500 nM. Moreover, the “residual substrate protein level, GSPT1” value on GSPT1 protein is “A (A represents a residual substrate protein level of <50%)”. The “residual substrate protein level, IKZF1” value at IKZF1 protein is listed as “B (B represents a residual substrate protein level of >50%)”.

Regarding `CC1(C)CCC(C(=O)N2CC3CC2CN3Cc2ccc3c(c2)CN(C2CCC(=O)NC2=O)C3=O)=C(c2ccc(F)cc2)C1` (centres unmarked) [GT-05403, 3-(5-((5-(4′-fluoro-5,5-dimethyl-3,4,5,6-tetrahydro-[1,1′-biphenyl]-2-carbonyl)-2,5-diazabicyclo[2.2.1]heptan-2-yl)methyl)-1-oxoisoindolin-2-yl)piperidine-2,6-dione], the IC50 in test [1] was 550 nM; in the test with MM.1S cells it was 5 to 10 nM.

Regarding `CC1(C)CCC(CN2C3CC2CN(Cc2ccc4c(c2F)CN(C2CCC(=O)NC2=O)C4=O)C3)=C(c2ccc(Cl)cc2)C1` (centres unmarked) [GT-05529, 3-(5-((6-((4′-chloro-5,5-dimethyl-3,4,5,6-tetrahydro-[1,1′-biphenyl]-2-yl)methyl)-3,6-diazabicyclo[3.1.1]heptan-3-yl)methyl)-4-fluoro-1-oxoisoindolin-2-yl)piperidine-2,6-dione], the “residual substrate protein level, IKZF3” value at IKZF3 protein was “A (A represents a residual substrate protein level of <50%)”. For the same compound, the IC50 in test [1] was 350 nM; in the test on Mino cells it was 500 to 1000 nM; with MM.1S cells, 100 to 500 nM. Moreover, at GSPT1 protein, the “residual substrate protein level, GSPT1” value was “B (B represents a residual substrate protein level of >50%)”. At IKZF1 protein, the “residual substrate protein level, IKZF1” value is listed as “A (A represents a residual substrate protein level of <50%)”.

With `O=C1CCC(N2Cc3cc(CN4CCN(Cc5cnc(-c6ccccc6)cn5)CC4)ccc3C2=O)C(=O)N1` (centres unmarked) [GT-05544, 3-(1-oxo-5-((4-((5-phenylpyrazin-2-yl)methyl)piperazin-1-yl)methyl)isoindolin-2-yl)piperidine-2,6-dione], the “residual substrate protein level, IKZF3” value at IKZF3 protein is given as “A (A represents a residual substrate protein level of <50%)”. Also, the IC50 is 840 nM in test [1], 5 to 10 nM in the test with Mino cells and 100 to 500 nM in the test with MM.1S cells. The “residual substrate protein level, GSPT1” value at GSPT1 protein is “B (B represents a residual substrate protein level of >50%)”. Further, the “residual substrate protein level, IKZF1” value on IKZF1 protein is “A (A represents a residual substrate protein level of <50%)”.

Turning to `O=C1CCC(N2C(=O)c3ccc(CN4CCN(Cc5ccc(-c6ccc(Cl)cc6)cc5)CC4)cc3C2=O)C(=O)N1` (centres unmarked) [GT-05599, 5-((4-((4′-chloro-[1,1′-biphenyl]-4-yl)methyl)piperazin-1-yl)methyl)-2-(2,6-dioxopiperidin-3-yl)isoindoline-1,3-dione], the “residual substrate protein level, IKZF3” value on IKZF3 protein was “A (A represents a residual substrate protein level of <50%)”. The results for the IC50 (in test [1]; in the test on Mino cells; with MM.1S cells) were 1670 nM, 100 to 500 nM and 500 to 1000 nM, respectively. In addition, the “residual substrate protein level, GSPT1” value at GSPT1 protein is on record as “B (B represents a residual substrate protein level of >50%)”. Besides, on IKZF1 protein, the “residual substrate protein level, IKZF1” value was “A (A represents a residual substrate protein level of <50%)”.

With `CC1(C)CCC(C(=O)N2CCC3(CC2)CN(Cc2ccc4c(c2)CN(C2CCC(=O)NC2=O)C4=O)C3)=C(c2ccc(Cl)cc2)C1` (centres unmarked) [GT-05656, 3-(5-((7-(4′-chloro-5,5-dimethyl-3,4,5,6-tetrahydro-[1,1′-biphenyl]-2-carbonyl)-2,7-diazaspiro[3.5]nonan-2-yl)methyl)-1-oxoisoindolin-2-yl)piperidine-2,6-dione], the “residual substrate protein level, IKZF3” value on IKZF3 protein was “A (A represents a residual substrate protein level of <50%)”. The IC50 in test [1] is 700 nM; in the test with MM.1S cells, 100 to 500 nM. For the same compound, the “residual substrate protein level, GSPT1” value at GSPT1 protein was “B (B represents a residual substrate protein level of >50%)”. For the same compound, the “residual substrate protein level, IKZF1” value on IKZF1 protein was “B (B represents a residual substrate protein level of >50%)”.

With `CC1(C)CCC(CN2CCC3(CC2)CN(Cc2ccc4c(c2)CN(C2CCC(=O)NC2=O)C4=O)C3)=C(c2ccc(Cl)cc2)C1` (centres unmarked) [GT-05677, 3-(5-((7-((4′-chloro-5,5-dimethyl-3,4,5,6-tetrahydro-[1,1′-biphenyl]-2-yl)methyl)-2,7-diazaspiro[3.5]nonan-2-yl)methyl)-1-oxoisoindolin-2-yl)piperidine-2,6-dione], at IKZF3 protein, the “residual substrate protein level, IKZF3” value was “A (A represents a residual substrate protein level of <50%)”. In addition, the figures for the IC50 (in test [1]; in the test with MM.1S cells) were 1230 nM and 50 to 100 nM, respectively. The “residual substrate protein level, GSPT1” value on GSPT1 protein is on record as “B (B represents a residual substrate protein level of >50%)”. For the same compound, the “residual substrate protein level, IKZF1” value on IKZF1 protein is given as “A (A represents a residual substrate protein level of <50%)”.

Consider `O=C1CCC(N2Cc3cc(CN4CCN(Cc5ccc(-c6ccc[nH]6)cc5)CC4)ccc3C2=O)C(=O)N1` (centres unmarked) [GT-05734, 3-(5-((4-(4-(1H-pyrrol-2-yl)benzyl)piperazin-1-yl)methyl)-1-oxoisoindolin-2-yl)piperidine-2,6-dione], for which the “residual substrate protein level, IKZF3” value at IKZF3 protein was “A (A represents a residual substrate protein level of <50%)”. The results for the IC50 (in test [1]; in the test with Mino cells) were 110 nM and 100 to 500 nM, respectively. The “residual substrate protein level, GSPT1” value on GSPT1 protein is reported as “B (B represents a residual substrate protein level of >50%)”. The “residual substrate protein level, IKZF1” value on IKZF1 protein was “B (B represents a residual substrate protein level of >50%)”.

For the compound `O=C1CCC(N2Cc3cc(CN4C5CCC4CN(C(=O)c4ccccc4-c4ccc(Cl)cc4)C5)ccc3C2=O)C(=O)N1` (centres unmarked) [GT-05788, 3-(5-((3-(4′-chloro-[1,1′-biphenyl]-2-carbonyl)-3,8-diazabicyclo[3.2.1]octan-8-yl)methyl)-1-oxoisoindolin-2-yl)piperidine-2,6-dione], the IC50 in test [1] is 500 nM; in the test with Mino cells, 100 to 500 nM; in the test with MM.1S cells it was 50 to 100 nM.

Regarding `O=C1CCC(N2Cc3cc(CN4CCN(Cc5ccc(-c6ccc(Cl)cn6)cc5)CC4)ccc3C2=O)C(=O)N1` (centres unmarked) [GT-05872, 3-(5-((4-(4-(5-chloropyridin-2-yl)benzyl)piperazin-1-yl)methyl)-1-oxoisoindolin-2-yl)piperidine-2,6-dione], the “residual substrate protein level, IKZF3” value on IKZF3 protein was “B (B represents a residual substrate protein level of >50%)”. Moreover, on GSPT1 protein, the “residual substrate protein level, GSPT1” value is “B (B represents a residual substrate protein level of >50%)”. Also, in the test with MM.1S cells, the IC50 was 500 to 1000 nM. Besides, at IKZF1 protein, the “residual substrate protein level, IKZF1” value is reported as “A (A represents a residual substrate protein level of <50%)”.
